The record followed here is patent publication US20240059755A1, “NANOLIPOPROTEIN-POLYPEPTIDE CONJUGATES AND COMPOSITIONS, SYSTEMS, AND METHODS USING SAME” (Genentech, Inc., priority 2020, published 2024).

In this assay the test system is trypsin. Description: Trypsin enzymatic assay (L-Arg-AMC substrate). Type of assay: biochemical.

Description: Briefly, the peptide NLP conjugates were incubated at the indicated concentration with trypsin (2 nM) for 30 min at room temperature. The substrate L-Arginine-7-amido-4-methylcoumarin (L-Arg-AMC) (75 μM) was added to the mixture and the proteolytic activity was measured immediately. Samples were run in triplicate and repeated twice. The data were analyzed using KaleidaGraph software.

For `CCCCCCCCCCCCCCCC(=O)NCCCC[C@H](N)C(=O)NCC(=O)N[C@@H](CO)C(=O)NCC(=O)N[C@@H](CO)C(=O)NCC(=O)N[C@H]1CSSC[C@@H]2NC(=O)CNC(=O)[C@H](C)NC(=O)[C@H](CC(C)C)NC(=O)[C@@H]3CSSC[C@@H](C(=O)NCC(=O)O)NC(=O)[C@H](Cc4ccccc4)NC(=O)CNC(=O)[C@H](CC(N)=O)NC(=O)[C@@H]4CCCN4C(=O)CNC(=O)[C@H](CSSC[C@H](NC(=O)[C@H](CCCNC(=N)N)NC(=O)[C@H](CCSC)NC(=O)[C@H](CC(C)C)NC(=O)[C@H]([C@@H](C)CC)NC(=O)[C@H](CCCNC(=N)N)NC(=O)[C@@H]4CCCN4C1=O)C(=O)N[C@@H](CCCCN)C(=O)N[C@@H](CCC(N)=O)C(=O)N[C@@H](CC(=O)O)C(=O)N[C@@H](CO)C(=O)N[C@@H](CC(=O)O)C(=O)N3)NC(=O)[C@H](C(C)C)NC2=O` [CKP-C16], the trypsin inhibitory activity entry is listed as “inhibitory potency”.
